{"source": "patent US20260008775A1", "about": "“AZOLE MODULATORS OF CHOLESTEROL BIOSYNTHESIS AND THEIR USE FOR PROMOTING REMYELINATION” (GENENTECH, INC., priority 2022, published 2026)", "key": {"[1]": {"molecular_target": "human emopamil binding protein and human 7-dehydrocholesterol reductase (hEBP-DHCR7) (Homo sapiens (Human), UniProt Q15125)", "sequence (Q15125 whole entry)": "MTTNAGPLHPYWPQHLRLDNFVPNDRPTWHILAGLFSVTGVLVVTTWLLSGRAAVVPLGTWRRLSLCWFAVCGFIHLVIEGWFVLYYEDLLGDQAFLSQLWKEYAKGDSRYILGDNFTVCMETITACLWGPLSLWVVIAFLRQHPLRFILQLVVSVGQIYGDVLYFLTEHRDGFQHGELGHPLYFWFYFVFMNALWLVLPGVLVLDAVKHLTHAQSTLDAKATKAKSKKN", "test": "hEBP-DHCR7 radioligand binding assay (filter binding, membranes of co-expressing HEK293 cells)", "settings": "competition with [3H] radioligand, 8 doses 0.06 to 5000 nM, Ki calculated from IC50", "summary_of_the_method": "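Compound, either single dose 1 μM or eight 5-fold dilutions from 0.06 to 5000 nM, competed with a [3H]-labelled ligand added at 25 nM for binding to co-expressing HEK293 membranes. IC50 came from nonlinear regression, with full block and DMSO as controls, then Cheng–Prusoff conversion to Ki.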"}, "[2]": {"tested_on": "zymostenol accumulation (EBP) in EpiSC-derived OPCs", "test": "GC/MS-based sterol profiling, zymostenol accumulation in EpiSC-derived OPCs", "format": "cell-based, mouse", "settings": "Mus musculus, 24 h, EpiSC-derived OPCs, 24 hr, 8 doses from 0.15 nM to 333 nM; read-out: Mouse Zymostenol GCMS EC50", "summary_of_the_method": "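Zymostenol level is expressed relative to that after 24 h with 100 nM positive-control reference, measured by full-scan GC/MS (m/z 458) with cholesterol-d7 internal standard after BSTFA derivatisation. Cells were EpiSC-derived OPCs, 100,000/well in N2B27 without growth factors, treated 24 h, from two or more independent platings.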"}, "EpiSC-derived OPCs": {"tested_on": "EpiSC-derived OPCs", "test": "In vitro phenotypic screening of OPCs, MBP high-content imaging (percentage of oligodendrocytes)", "format": "cell-based, mouse", "settings": "Mus musculus, 72 h, 3 days, MBP stain, dose-response 0.5 nM to 1000 nM; read-out: OPC EC50", "summary_of_the_method": "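EC50 was fitted by Hill equation to the MBP-positive oligodendrocyte percentage from imaging of fixed, MBP- and DAPI-stained cells. Treatment lasted 3 days at 37 °C, final doses 0.5–1000 nM over 8 points, in growth factor-free N2B27. Cells were EpiSC-derived OPCs, tested in at least two independent platings.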"}}}
{"smiles": "CCn1nc(-c2ccc(C(F)(F)F)nc2)nc1[C@H]1CC[C@H](N2CCCOCC2)CC1", "note": "[8*, 4-((1r,4r)-4-(1-ethyl-3-(6-(trifluoromethyl)pyridin-3-yl)-1H-1,2,4-triazol-5-yl)cyclohexyl)-1,4-oxazepane]", "values": [{"measurement": "Ki", "setting": "[1]", "result": 38.2, "unit": "nM"}, {"measurement": "EC50", "setting": "[2]", "result": 44.8, "unit": "nM"}, {"measurement": "EC50", "setting": "EpiSC-derived OPCs", "result": 280, "unit": "nM"}]}
{"smiles": "CC(C)n1nc(-c2cccc(C#N)c2)cc1[C@H]1[C@@H]2C[C@H](N3CCCOCC3)C[C@@H]21", "note": "[Compound 191*, 3-(5-((1R,3r,5S,6r)-3-(1,4-Oxazepan-4-yl)bicyclo[3.1.0]hexan-6-yl)-1-isopropyl-1H-pyrazol-3-yl)benzonitrile]", "values": [{"measurement": "Ki", "setting": "[1]", "result": 8.04, "unit": "nM"}, {"measurement": "EC50", "setting": "[2]", "result": 2.66, "unit": "nM"}, {"measurement": "EC50", "setting": "EpiSC-derived OPCs", "result": 8.52, "unit": "nM"}]}
{"smiles": "CC(C)n1nc([C@H]2CC[C@@H](C(F)(F)F)CC2)nc1[C@H]1[C@@H]2C[C@H](N3CCOC[C@H]3C)C[C@@H]21", "note": "(single isomer, unassigned) [Compound 166*]", "values": [{"measurement": "Ki", "setting": "[1]", "result": 41, "unit": "nM"}, {"measurement": "EC50", "setting": "[2]", "result": 30.5, "unit": "nM"}, {"measurement": "EC50", "setting": "EpiSC-derived OPCs", "result": 108, "unit": "nM"}]}
{"smiles": "CC(C)n1nc(-c2ccc(C(F)(F)F)nc2)nc1[C@H]1CC[C@@H](N2CCO[C@H](CF)C2)C1", "note": "(single isomer, unassigned) [Compound 169]", "values": [{"measurement": "Ki", "setting": "[1]", "result": 30.2, "unit": "nM"}, {"measurement": "EC50", "setting": "[2]", "result": 7.6, "unit": "nM"}, {"measurement": "EC50", "setting": "EpiSC-derived OPCs", "result": 6.2, "unit": "nM"}]}
{"smiles": "CC(C)n1nc(-c2ccc(C(F)(F)F)c(F)c2)nc1[C@H]1CC[C@H](N2CCOCC2)C1", "note": "(single isomer, unassigned) [Compound 112*]", "values": [{"measurement": "Ki", "setting": "[1]", "result": 90.8, "unit": "nM"}, {"measurement": "EC50", "setting": "[2]", "result": 23.8, "unit": "nM"}, {"measurement": "EC50", "setting": "EpiSC-derived OPCs", "result": 196, "unit": "nM"}]}
{"smiles": "CC(C)n1nc(-c2ccnc(C(F)(F)F)n2)cc1[C@H]1[C@@H]2C[C@H](N3CCOC[C@@H]3C)C[C@@H]21", "note": "[Compound 101, (S)-4-((1R,3r,5S,6S)-6-(1-Isopropyl-3-(2-(trifluoromethyl)pyrimidin-4-yl)-1H-pyrazol-5-yl)bicyclo[3.1.0]hexan-3-yl)-3-methylmorpholine]", "values": [{"measurement": "Ki", "setting": "[1]", "result": 7.22, "unit": "nM"}, {"measurement": "EC50", "setting": "[2]", "result": 1.1, "unit": "nM"}, {"measurement": "EC50", "setting": "EpiSC-derived OPCs", "result": 2.02, "unit": "nM"}]}
{"smiles": "CC(C)n1nc(-c2ccc(C(F)(F)F)nc2)nc1[C@@H]1CC[C@H](N2CCOCC2)C1", "note": "[Compound 105, 4-((1S,3R)-3-(1-Isopropyl-3-(6-(trifluoromethyl)pyridin-3-yl)-1H-1,2,4-triazol-5-yl)cyclopentyl)morpholine]", "values": [{"measurement": "Ki", "setting": "[1]", "result": 8.89, "unit": "nM"}, {"measurement": "EC50", "setting": "[2]", "result": 3.15, "unit": "nM"}, {"measurement": "EC50", "setting": "EpiSC-derived OPCs", "result": 11.7, "unit": "nM"}]}
{"smiles": "CC(C)n1nc(-c2ccc(F)cc2)cc1[C@H]1[C@@H]2C[C@@H](N3CCCOCC3)C[C@@H]21", "note": "[Compound 184*, 4-((1R,3s,5S,6r)-6-(3-(4-fluorophenyl)-1-isopropyl-1H-pyrazol-5-yl)bicyclo[3.1.0]hexan-3-yl)-1,4-oxazepane]", "values": [{"measurement": "Ki", "setting": "[1]", "result": 21.3, "unit": "nM"}, {"measurement": "EC50", "setting": "[2]", "result": 27.1, "unit": "nM"}, {"measurement": "EC50", "setting": "EpiSC-derived OPCs", "result": 55.9, "unit": "nM"}]}
{"smiles": "CC(C)n1nc(-c2ccc(C(F)(F)F)nc2)cc1[C@H]1[C@@H]2C[C@H](N3CCCOCC3)C[C@@H]21", "note": "[Compound 48, 4-((1R,3S,5S,6R)-6-(1-Isopropyl-3-(6-(trifluoromethyl)pyridin-3-yl)-1H-pyrazol-5-yl)bicyclo[3.1.0]hexan-3-yl)-1,4-oxazepane]", "values": [{"measurement": "Ki", "setting": "[1]", "result": 18.4, "unit": "nM"}, {"measurement": "EC50", "setting": "[2]", "result": 7.28, "unit": "nM"}, {"measurement": "EC50", "setting": "EpiSC-derived OPCs", "result": 11.6, "unit": "nM"}]}
{"smiles": "CC(C)n1nc(-c2cnc(C(F)(F)F)nc2)nc1[C@H]1CC[C@@H](N2CCOCC2)C1", "note": "[Compound 95, 4-((1R,3S)-3-(1-Isopropyl-3-(2-(trifluoromethyl)pyrimidin-5-yl)-1H-1,2,4-triazol-5-yl)cyclopentyl)morpholine]", "values": [{"measurement": "Ki", "setting": "[1]", "result": 33.3, "unit": "nM"}, {"measurement": "EC50", "setting": "[2]", "result": 20.3, "unit": "nM"}, {"measurement": "EC50", "setting": "EpiSC-derived OPCs", "result": 136, "unit": "nM"}]}
{"smiles": "CC(C)n1nc(-c2cncc(C(F)(F)F)c2)cc1[C@H]1[C@@H]2C[C@H](N3CCO[C@@H](C)C3)C[C@@H]21", "note": "(single isomer, unassigned) [41*]", "values": [{"measurement": "Ki", "setting": "[1]", "result": 22.6, "unit": "nM"}, {"measurement": "EC50", "setting": "[2]", "result": 2.86, "unit": "nM"}, {"measurement": "EC50", "setting": "EpiSC-derived OPCs", "result": 7.75, "unit": "nM"}]}
{"smiles": "CC(C)n1nc(-c2ccc(C(F)(F)F)c(F)c2)nc1[C@H]1CC[C@@H](N2CCO[C@H](CF)C2)C1", "note": "[Compound 160, (S)-4-((1R,3S)-3-(3-(3-Fluoro-4-(trifluoromethyl)phenyl)-1-isopropyl-1H-1,2,4-triazol-5-yl)cyclopentyl)-2-(fluoromethyl)morpholine]", "values": [{"measurement": "Ki", "setting": "[1]", "result": 32.7, "unit": "nM"}, {"measurement": "EC50", "setting": "[2]", "result": 1.03, "unit": "nM"}, {"measurement": "EC50", "setting": "EpiSC-derived OPCs", "result": 32.7, "unit": "nM"}]}
